Like-named read-outs stand apart in the source and are kept apart here.
Tests used:
EGFR L858R/T790M/C797S = EGFR L858R/T790M/C797S (Homo sapiens, UniProt P00533, C797S/L858R/T790M); test: Biochemical EGFR kinase inhibition assay (Lance Ultra TR-FRET), triple mutant L858R/T790M/C797S
In short: (§1)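 Enzyme reactions lasted 1 hour at room temperature with test compounds between 0.003 and 10 μM, followed by 10 mM EDTA quench.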

EGFR Del19/T790M/C797S = EGFR Del19/T790M/C797S (Homo sapiens, UniProt P00533, C797S/DEL746-750/T790M); test: Biochemical EGFR kinase inhibition assay (Lance Ultra TR-FRET), triple mutant del19/T790M/C797S
In short: as §1

EGFR wildtype (WT) = EGFR wildtype (WT) (Homo sapiens, UniProt P00533); test: Biochemical EGFR kinase inhibition assay (Lance Ultra TR-FRET), wildtype
In short: as §1

EGFR L858R/C797S = EGFR L858R/C797S (Homo sapiens, UniProt P00533, C797S/L858R); test: Biochemical EGFR kinase inhibition assay (Lance Ultra TR-FRET), double mutant L858R/C797S
In short: as §1

EGFR Del19/C797S = EGFR Del19/C797S (Homo sapiens, UniProt P00533, C797S/DEL746-750); test: Biochemical EGFR kinase inhibition assay (Lance Ultra TR-FRET), double mutant del19/C797S
In short: as §1

[1] = IC50 L858R/T790M/C797S (nM), 100 μM ATP
[2] = IC50 Del19/T790M/C797S (nM), 100 μM ATP
[3] = IC50 L858R/C797S (nM), 100 μM ATP
[4] = IC50 Del19/C797S (nM), 100 μM ATP
[5] = ATP at Km, read-out: IC50 L858R/T790M/C797S (nM), Km ATP
[6] = ATP at Km, read-out: IC50 Del19/T790M/C797S (nM), Km ATP
[7] = ATP at Km, read-out: IC50 WT (nM), Km ATP
[8] = ATP at Km, read-out: IC50 L858R/C797S (nM), Km ATP
[9] = ATP at Km, read-out: IC50 Del19/C797S (nM), Km ATP
[10] = Km ATP, read-out: IC50 L858R/T790M/C797S (nM), Km ATP
[11] = Km ATP, read-out: IC50 Del19/T790M/C797S (nM), Km ATP
[12] = Km ATP, read-out: IC50 WT (nM), Km ATP
[13] = Km ATP, read-out: IC50 L858R/C797S (nM), Km ATP
[14] = Km ATP, read-out: IC50 Del19/C797S (nM), Km ATP

Sequence of EGFR Del19/C797S (P00533 with tags, fused parts or gaps DEL746-750/C797S): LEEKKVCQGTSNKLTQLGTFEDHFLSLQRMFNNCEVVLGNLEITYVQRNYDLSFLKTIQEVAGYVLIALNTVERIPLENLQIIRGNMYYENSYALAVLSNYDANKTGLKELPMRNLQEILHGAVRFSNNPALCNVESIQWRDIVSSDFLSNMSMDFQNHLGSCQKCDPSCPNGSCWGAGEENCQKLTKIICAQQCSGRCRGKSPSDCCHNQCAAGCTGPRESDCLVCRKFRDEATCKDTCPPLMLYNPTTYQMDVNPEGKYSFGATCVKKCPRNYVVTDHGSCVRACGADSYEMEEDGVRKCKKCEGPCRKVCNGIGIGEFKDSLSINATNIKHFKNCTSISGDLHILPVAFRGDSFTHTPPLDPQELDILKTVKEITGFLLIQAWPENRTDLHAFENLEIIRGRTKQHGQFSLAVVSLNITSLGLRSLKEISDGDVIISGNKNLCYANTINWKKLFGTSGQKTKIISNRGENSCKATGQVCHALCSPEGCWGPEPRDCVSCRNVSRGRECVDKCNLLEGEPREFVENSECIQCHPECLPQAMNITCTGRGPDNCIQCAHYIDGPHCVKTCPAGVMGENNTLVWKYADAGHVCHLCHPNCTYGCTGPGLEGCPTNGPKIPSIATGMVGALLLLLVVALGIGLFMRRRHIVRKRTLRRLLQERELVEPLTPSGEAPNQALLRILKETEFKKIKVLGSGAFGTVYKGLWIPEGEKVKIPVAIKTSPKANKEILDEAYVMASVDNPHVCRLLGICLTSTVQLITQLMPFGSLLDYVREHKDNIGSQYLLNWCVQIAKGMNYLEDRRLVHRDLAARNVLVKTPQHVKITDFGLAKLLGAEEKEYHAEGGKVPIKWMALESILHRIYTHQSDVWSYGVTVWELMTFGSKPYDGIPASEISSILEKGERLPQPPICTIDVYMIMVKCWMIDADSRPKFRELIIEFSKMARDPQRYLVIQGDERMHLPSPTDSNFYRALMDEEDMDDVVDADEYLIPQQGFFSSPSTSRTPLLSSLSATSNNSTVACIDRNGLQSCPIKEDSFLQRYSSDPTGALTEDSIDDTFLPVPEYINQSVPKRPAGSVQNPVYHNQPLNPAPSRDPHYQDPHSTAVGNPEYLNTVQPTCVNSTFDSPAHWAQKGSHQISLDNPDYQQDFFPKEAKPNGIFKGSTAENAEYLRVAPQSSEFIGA
Sequence of EGFR wildtype (WT) (P00533 25-1210): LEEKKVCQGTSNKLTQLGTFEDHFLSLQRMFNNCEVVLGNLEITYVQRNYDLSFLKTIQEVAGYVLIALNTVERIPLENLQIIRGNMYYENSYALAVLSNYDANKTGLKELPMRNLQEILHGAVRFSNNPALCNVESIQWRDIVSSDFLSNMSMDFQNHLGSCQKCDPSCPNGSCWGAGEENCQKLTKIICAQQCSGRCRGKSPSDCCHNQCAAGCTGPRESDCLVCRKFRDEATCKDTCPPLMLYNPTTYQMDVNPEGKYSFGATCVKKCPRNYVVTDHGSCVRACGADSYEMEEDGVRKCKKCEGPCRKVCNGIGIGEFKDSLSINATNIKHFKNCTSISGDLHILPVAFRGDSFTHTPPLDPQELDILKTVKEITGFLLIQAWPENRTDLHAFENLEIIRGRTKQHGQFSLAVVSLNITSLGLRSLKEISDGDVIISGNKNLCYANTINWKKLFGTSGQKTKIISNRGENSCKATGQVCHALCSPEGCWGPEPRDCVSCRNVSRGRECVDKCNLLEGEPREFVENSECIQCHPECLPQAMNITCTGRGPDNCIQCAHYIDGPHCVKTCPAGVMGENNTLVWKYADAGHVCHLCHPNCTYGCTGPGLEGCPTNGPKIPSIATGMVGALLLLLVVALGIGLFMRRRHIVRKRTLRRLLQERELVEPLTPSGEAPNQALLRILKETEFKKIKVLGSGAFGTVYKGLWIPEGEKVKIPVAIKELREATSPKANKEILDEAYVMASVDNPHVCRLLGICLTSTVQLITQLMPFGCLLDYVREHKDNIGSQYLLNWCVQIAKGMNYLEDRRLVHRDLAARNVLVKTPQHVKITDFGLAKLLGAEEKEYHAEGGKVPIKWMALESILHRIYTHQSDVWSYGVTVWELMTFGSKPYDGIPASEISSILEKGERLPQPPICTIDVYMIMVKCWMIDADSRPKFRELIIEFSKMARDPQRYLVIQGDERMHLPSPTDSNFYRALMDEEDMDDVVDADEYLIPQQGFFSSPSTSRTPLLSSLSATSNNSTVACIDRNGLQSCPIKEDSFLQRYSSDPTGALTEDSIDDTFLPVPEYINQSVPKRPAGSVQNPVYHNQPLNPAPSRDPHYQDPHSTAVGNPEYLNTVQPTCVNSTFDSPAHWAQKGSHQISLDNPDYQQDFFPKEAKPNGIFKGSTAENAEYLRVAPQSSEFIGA
Sequence of EGFR L858R/C797S (P00533 25-1210 C797S/L858R): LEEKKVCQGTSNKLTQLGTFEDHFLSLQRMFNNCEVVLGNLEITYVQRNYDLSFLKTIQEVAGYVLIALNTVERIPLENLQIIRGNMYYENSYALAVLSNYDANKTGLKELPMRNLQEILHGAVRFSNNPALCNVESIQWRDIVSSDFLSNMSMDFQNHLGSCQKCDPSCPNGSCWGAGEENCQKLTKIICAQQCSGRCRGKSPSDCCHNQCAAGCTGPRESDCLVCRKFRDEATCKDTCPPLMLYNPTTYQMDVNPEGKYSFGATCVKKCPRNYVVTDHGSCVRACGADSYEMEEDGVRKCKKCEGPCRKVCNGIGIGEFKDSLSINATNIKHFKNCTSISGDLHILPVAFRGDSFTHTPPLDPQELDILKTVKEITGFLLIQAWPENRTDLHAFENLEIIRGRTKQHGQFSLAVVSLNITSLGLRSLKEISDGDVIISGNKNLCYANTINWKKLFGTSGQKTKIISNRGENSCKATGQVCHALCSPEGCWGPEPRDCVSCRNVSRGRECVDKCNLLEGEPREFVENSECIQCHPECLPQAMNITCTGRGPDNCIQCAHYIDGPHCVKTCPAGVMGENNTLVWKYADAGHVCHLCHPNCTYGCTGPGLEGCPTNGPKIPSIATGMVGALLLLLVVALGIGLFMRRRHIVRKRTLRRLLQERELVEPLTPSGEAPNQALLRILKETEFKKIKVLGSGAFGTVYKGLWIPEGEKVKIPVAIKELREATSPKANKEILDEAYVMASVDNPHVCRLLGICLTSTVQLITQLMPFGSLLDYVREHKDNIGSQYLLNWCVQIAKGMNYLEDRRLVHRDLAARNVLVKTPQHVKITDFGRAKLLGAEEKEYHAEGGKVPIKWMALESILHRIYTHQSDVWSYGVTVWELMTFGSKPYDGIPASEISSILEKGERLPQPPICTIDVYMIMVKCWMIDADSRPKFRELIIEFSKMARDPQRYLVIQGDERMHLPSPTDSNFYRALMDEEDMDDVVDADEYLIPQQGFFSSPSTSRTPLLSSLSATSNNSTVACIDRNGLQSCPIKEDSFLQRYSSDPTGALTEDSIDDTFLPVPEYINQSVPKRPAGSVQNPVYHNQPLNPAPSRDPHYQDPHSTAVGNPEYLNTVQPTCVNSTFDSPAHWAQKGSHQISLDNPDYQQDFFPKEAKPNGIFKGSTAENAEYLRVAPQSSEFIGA
Sequence of EGFR Del19/T790M/C797S (P00533 with tags, fused parts or gaps DEL746-750/T790M/C797S): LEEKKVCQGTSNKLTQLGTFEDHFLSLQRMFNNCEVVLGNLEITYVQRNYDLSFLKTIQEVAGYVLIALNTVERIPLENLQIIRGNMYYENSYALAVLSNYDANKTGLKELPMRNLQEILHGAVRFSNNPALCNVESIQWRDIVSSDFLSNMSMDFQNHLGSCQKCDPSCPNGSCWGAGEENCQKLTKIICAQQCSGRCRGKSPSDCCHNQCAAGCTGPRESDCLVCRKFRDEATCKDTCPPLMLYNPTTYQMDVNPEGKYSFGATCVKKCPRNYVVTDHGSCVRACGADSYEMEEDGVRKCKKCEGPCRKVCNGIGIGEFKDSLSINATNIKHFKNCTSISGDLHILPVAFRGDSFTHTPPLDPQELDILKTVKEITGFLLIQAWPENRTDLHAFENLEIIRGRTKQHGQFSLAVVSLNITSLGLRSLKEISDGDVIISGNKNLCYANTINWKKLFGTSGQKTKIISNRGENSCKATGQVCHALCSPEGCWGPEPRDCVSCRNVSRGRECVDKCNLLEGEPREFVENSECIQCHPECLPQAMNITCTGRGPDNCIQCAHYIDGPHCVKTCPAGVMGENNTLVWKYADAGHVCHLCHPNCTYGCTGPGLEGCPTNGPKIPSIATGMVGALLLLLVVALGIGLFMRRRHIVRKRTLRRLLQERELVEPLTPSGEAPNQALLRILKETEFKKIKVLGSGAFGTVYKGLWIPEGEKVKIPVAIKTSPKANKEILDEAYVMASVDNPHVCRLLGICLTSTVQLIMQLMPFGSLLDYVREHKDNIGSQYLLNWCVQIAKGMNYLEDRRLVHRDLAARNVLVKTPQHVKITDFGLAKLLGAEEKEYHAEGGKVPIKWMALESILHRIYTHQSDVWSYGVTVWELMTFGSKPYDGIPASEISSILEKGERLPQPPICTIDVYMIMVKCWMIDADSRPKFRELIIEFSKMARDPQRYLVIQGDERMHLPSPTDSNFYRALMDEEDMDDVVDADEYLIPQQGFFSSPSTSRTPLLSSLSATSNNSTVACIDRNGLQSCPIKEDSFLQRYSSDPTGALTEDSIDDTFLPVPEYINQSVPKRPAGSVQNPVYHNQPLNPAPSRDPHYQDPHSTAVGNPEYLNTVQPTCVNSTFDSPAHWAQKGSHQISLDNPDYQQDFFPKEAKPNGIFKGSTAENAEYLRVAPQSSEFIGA

Compound	IC50 (EGFR L858R/T790M/C797S; [1]) [nM]	IC50 (EGFR Del19/T790M/C797S; [2]) [nM]	IC50 (EGFR wildtype (WT); IC50 WT (nM), 100 μM ATP) [nM]	IC50 (EGFR L858R/C797S; [3]) [nM]	IC50 (EGFR Del19/C797S; [4]) [nM]	IC50 (EGFR L858R/T790M/C797S; [5]) [nM]	IC50 (EGFR Del19/T790M/C797S; [6]) [nM]	IC50 (EGFR wildtype (WT); [7]) [nM]	IC50 (EGFR L858R/C797S; [8]) [nM]	IC50 (EGFR Del19/C797S; [9]) [nM]	other results
CN(C)CCC1CCN(c2cc(Nc3ccnc(-c4cnn(S(=O)(=O)C5CC5)c4)n3)ncc2C#CC2CCN(C(=O)C(F)(F)F)C2)CC1 (stereo not drawn) [Example 413, 1-(3-((6-((2-(1-(Cyclopropylsulfonyl)-1H-pyrazol-4-yl)pyrimidin-4-yl)amino)-4-(4-(2-(dimethylamino)ethyl)piperidin-1-yl)pyridin-3-yl)ethynyl)pyrrolidin-1-yl)-2,2,2-trifluoroethan-1-one]	1.4	0.1	2910	10.3	0.8						
O=S(=O)(C1CC1)n1cc(-c2nccc(Nc3cc(N[C@H]4CC[C@@H](O)CC4)c(C#Cc4ccc(NCCN5CCOCC5)cc4)cn3)n2)cn1 [Example 172, (1s,4s)-4-((2-((2-(1-(Cyclopropylsulfonyl)-1H-pyrazol-4-yl)pyrimidin-4-yl)amino)-5-((4-((2-morpholinoethyl)amino)phenyl)ethynyl)pyridin-4-yl)amino)cyclohexan-1-ol]						4.8	4.6	68.4	11.5	14.1	IC50 (EGFR L858R/T790M/C797S; read-out: IC50 L858R/T790M/C797S (nM), 100 μM ATP): 14.5 nM; IC50 (EGFR Del19/T790M/C797S; read-out: IC50 Del19/T790M/C797S (nM), 100 μM ATP): 6.9 nM; IC50 (EGFR wildtype (WT); read-out: IC50 WT (nM), 100 μM ATP): > 10000 nM; IC50 (EGFR L858R/C797S; read-out: IC50 L858R/C797S (nM), 100 μM ATP): 124 nM; IC50 (EGFR Del19/C797S; read-out: IC50 Del19/C797S (nM), 100 μM ATP): 32.4 nM
CS(=O)(=O)N1CCC(C#Cc2cnc(Nc3ccnc(-c4cnn(S(=O)(=O)C5CC5)c4)n3)cc2NC[C@H]2CC[C@H](CO)CC2)CC1 [Example 388, ((1r,4r)-4-(((2-((2-(1-(Cyclopropylsulfonyl)-1H-pyrazol-4-yl)pyrimidin-4-yl)amino)-5-((1-(methylsulfonyl)piperidin-4-yl)ethynyl)pyridin-4-yl)amino)methyl)cyclohexyl)methanol]	19.3	6.6	> 10000	624	127						IC50 (EGFR L858R/T790M/C797S; [10]): 2 nM; IC50 (EGFR Del19/T790M/C797S; [11]): 2.7 nM; IC50 (EGFR wildtype (WT); [12]): 312 nM; IC50 (EGFR L858R/C797S; [13]): 38.6 nM; IC50 (EGFR Del19/C797S; [14]): 33.3 nM
O=C(N1CCC(C#Cc2cnc(Nc3ccnc(-c4cnn(S(=O)(=O)C5CC5)c4)n3)cc2NCC2CCC(CO)CC2)C1)C(F)(F)F (stereo not drawn) [Example 411, 1-(3-((6-((2-(1-(Cyclopropylsulfonyl)-1H-pyrazol-4-yl)pyrimidin-4-yl)amino)-4-((((1 r,4r)-4-(hydroxymethyl)cyclohexyl)methyl)amino)pyridin-3-yl)ethynyl)pyrrolidin-1-yl)-2,2,2-trifluoroethan-1-one]	35.9	7.3	> 10000	979	59.8						
CC1(CO)CCN(c2cc(Nc3ccnc(-c4cnn(S(=O)(=O)C5CC5)c4)n3)ncc2C#CC2(O)CCOC2)CC1 (stereo not drawn) [Example 355, 3-((6-((2-(1-(Cyclopropylsulfonyl)-1H-pyrazol-4-yl)pyrimidin-4-yl)amino)-4-(4-(hydroxymethyl)-4-methylpiperidin-1-yl)pyridin-3-yl)ethynyl)tetrahydrofuran-3-ol]	0.2	0.2	1740	7.4	0.4						IC50 (EGFR L858R/T790M/C797S; [10]): 0.1 nM; IC50 (EGFR Del19/T790M/C797S; [11]): 0.2 nM; IC50 (EGFR wildtype (WT); [12]): 4.8 nM; IC50 (EGFR L858R/C797S; [13]): 0.5 nM; IC50 (EGFR Del19/C797S; [14]): 0.2 nM
CN(C)CC1(C)CCN(c2cc(Nc3ccnc(-c4cnn(S(=O)(=O)C5CC5)c4)n3)ncc2C#Cc2cnn(C3CC3)c2)CC1 [Example 299, N-(5-((1-Cyclopropyl-1H-pyrazol-4-yl)ethynyl)-4-(4-((dimethylamino)methyl)-4-methylpiperidin-1-yl)pyridin-2-yl)-2-(1-(cyclopropylsulfonyl)-1H-pyrazol-4-yl)pyrimidin-4-amine]	0.2	0.2	7510	17.2	1	0.1	0.2	4.7	1.4	1.1	
O=S(=O)(C1CC1)n1cc(-c2nccc(Nc3cc(N4CCCC(O)C4)c(C#Cc4ccc(N5CCOCC5)nc4)cn3)n2)cn1 (stereo not drawn) [Example 227, 1-(2-((2-(1-(Cyclopropylsulfonyl)-1H-pyrazol-4-yl)pyrimidin-4-yl)amino)-5-((6-morpholinopyridin-3-yl)ethynyl)pyridin-4-yl)piperidin-3-ol]	18.3	4.6	> 10000	294	94.7						
CC1(CO)CCN(c2cc(Nc3ccnc(-c4cnn(S(=O)(=O)C5CC5)c4)n3)ncc2C#Cc2ccc(CN3CCOCC3)nc2)CC1 [Example 187, (1-(2-((2-(1-(Cyclopropylsulfonyl)-1H-pyrazol-4-yl)pyrimidin-4-yl)amino)-5-((6-(morpholinomethyl)pyridin-3-yl)ethynyl)pyridin-4-yl)-4-methylpiperidin-4-yl)methanol]	0.8	0.5	932	8.2	0.9	1.2	0.9	3.9	2	1.6	
CN(C)C[C@H]1CC[C@@H](Nc2cc(Nc3ccnc(-c4cnn(S(=O)(=O)C5CC5)c4)n3)ncc2C#Cc2cnn(C)c2)CC1 [Example 312, N^2-(2-(1-(Cyclopropylsulfonyl)-1H-pyrazol-4-yl)pyrimidin-4-yl)-N^4-((1s,4s)-4-((dimethylamino)methyl)cyclohexyl)-5-((1-methyl-1H-pyrazol-4-yl)ethynyl)pyridine-2,4-diamine]	0.4	0.3	6180	12.2	2.4	0.1	0.3	9.6	1.1	1.1	
CN(C)C[C@H]1CC[C@H](COc2cc(Nc3ccnc(-c4cnn(S(=O)(=O)C5CC5)c4)n3)ncc2C#Cc2cccnc2)CC1 [Example 62, 2-(1-(Cyclopropylsulfonyl)-1H-pyrazol-4-yl)-N-(4-(((1r,4r)-4-((dimethylamino)methyl)cyclohexyl)methoxy)-5-(pyridin-3-ylethynyl)pyridin-2-yl)pyrimidin-4-amine]											IC50 (EGFR L858R/T790M/C797S; Km ATP, read-out: IC50 L858R/T790M/C797S (nM) Km ATP): 0.1 nM; IC50 (EGFR Del19/T790M/C797S; Km ATP, read-out: IC50 Del19/T790M/C797S (nM) Km ATP): 0.2 nM; IC50 (EGFR wildtype (WT); Km ATP, read-out: IC50 WT (nM) Km ATP): 7.9 nM; IC50 (EGFR L858R/C797S; Km ATP, read-out: IC50 L858R/C797S (nM) Km ATP): 4.9 nM; IC50 (EGFR Del19/C797S; Km ATP, read-out: IC50 Del19/C797S (nM) Km ATP): 0.4 nM
O=S(=O)(C1CC1)n1cc(-c2nccc(Nc3cc(N4CCC(F)(CO)CC4)c(C#Cc4cnn(C(F)(F)F)c4)cn3)n2)cn1 [Example 338, (1-(2-((2-(1-(Cyclopropylsulfonyl)-1H-pyrazol-4-yl)pyrimidin-4-yl)amino)-5-((1-(trifluoromethyl)-1H-pyrazol-4-yl)ethynyl)pyridin-4-yl)-4-fluoropiperidin-4-yl)methanol]	0.5	0.4	> 10000	9580	17.1						IC50 (EGFR L858R/T790M/C797S; [10]): 0.2 nM; IC50 (EGFR Del19/T790M/C797S; [11]): 0.3 nM; IC50 (EGFR wildtype (WT); [12]): 149 nM; IC50 (EGFR L858R/C797S; [13]): 42.8 nM; IC50 (EGFR Del19/C797S; [14]): 10.8 nM
